Like-named read-outs stand apart in the source and are kept apart here.
Key:
Experiment in all cases: cells
Type in all cases: cell-based
Details in all cases: Homo sapiens; for IC (TGI): read-out: TGI
A549 = test system: A549
Description: (§1) The aim of this assay is to evaluate the in vitro cytostatic (ability to delay or arrest tumor cell growth) or cytotoxic (ability to kill tumor cells) activity of the samples being tested.
(§2) Evaluation of Cytotoxic Activity Using the SBR Colorimetric Assay
(§3) A colorimetric type of assay, using sulforhodamine B (SRB) reaction has been adapted for a quantitative measurement of cell growth and viability (following the technique described by Skehan P et al. J. Natl. Cancer Inst. 1990, 82, 1107-1112).
(§4) This form of assay employs SBS-standard 96-well cell culture microplates (Faircloth et al. Methods in cell science, 1988, 11(4), 201-205; Mosmann et al, Journal of. Immunological. Methods, 1983, 65(1-2), 55-63). All the cell lines used in this study, derived from different types of human cancer, were obtained from the American Type Culture Collection (ATCC).
(§5) Cells were maintained in Dulbecco's Modified Eagle Medium (DMEM) supplemented with 10% Fetal Bovine Serum (FBS), 2 mM L-glutamine, 100 U/mL penicillin and 100 U/mL streptomycin at 37° C., 5% CO2 and 98% humidity. For the experiments, cells were harvested from subconfluent cultures using trypsinization and resuspended in fresh medium before counting and plating.
(§6) Cells were seeded in 96 well microtiter plates at 5×10^3 cells per well in aliquots of 150 μL, and allowed to attach to the plate surface for 18 hours in drug free medium. One control (untreated) plate of each cell line was fixed (as described below) and used for time zero reference value. Afterwards, test samples were added to the cultures in ten serial dilutions, in aliquots of 50 μL, ranging from 10 to 0.00262 μg/mL. After 48 hours exposure, the antitumor effect was estimated by the SRB method: Briefly, cells were washed twice with PBS, fixed for 15 min in 1% glutaraldehyde solution, rinsed twice in PBS, and stained in 0.4% SRB solution for 30 min at room temperature. Cells were then rinsed several times with 1% acetic acid solution and air-dried. SRB was then extracted in 10 mM trizma base solution and the absorbance measured in an automated spectrophotometric plate reader at 490 nm. Cell survival was expressed as percentage of control cell growth. The final effect of the sample being tested was estimated by applying the NCI algorithm (Boyd M R and Paull K D. Drug Dev. Res. 1995, 34, 91-104).
(§7) Using the mean±SD of triplicate cultures, a dose-response curve was automatically generated using nonlinear regression analysis. Three reference parameters were calculated (NCI algorithm) by automatic interpolation: GI50=concentration that produces 50% growth inhibition; TGI=total growth inhibition (cytostatic effect) and LC50=concentration that produces 50% net cell killing (cytotoxic effect).

HT29 = test system: HT29
Description: as §1, §2, §3, §4, §5, §6, §7

MDA-MB-231 = test system: MDA-MB-231
Description: as §1, §2, §3, §4, §5, §6, §7

[1] = A549, 48 hours exposure, SRB, 50% net cell killing (cytotoxic effect), read-out: LC50 (the source's name)
[2] = A549, 48 hours exposure, SRB, concentration that produces 50% growth inhibition, read-out: GI50
[3] = A549, 48 hours exposure, SRB, total growth inhibition (cytostatic effect)
[4] = HT-29, HT29, 48 hours exposure, SRB, 50% net cell killing (cytotoxic effect), read-out: LC50 (the source's name)
[5] = HT-29, HT29, 48 hours exposure, SRB, concentration that produces 50% growth inhibition, read-out: GI50
[6] = HT-29, HT29, 48 hours exposure, SRB, total growth inhibition (cytostatic effect)
[7] = MDA-MB-231, 48 hours exposure, SRB, 50% net cell killing (cytotoxic effect), read-out: LC50 (the source's name)
[8] = MDA-MB-231, 48 hours exposure, SRB, concentration that produces 50% growth inhibition, read-out: GI50
[9] = MDA-MB-231, 48 hours exposure, SRB, total growth inhibition (cytostatic effect)
[10] = MDA-MB-231, 48 h, read-out: LC50

## COC1=CC[C@@H]([C@@H](C)/C=C(C)/C=C\C=C/C(=O)N[C@@H](C(N)=O)C(C)(C)C)OC1=O [(15R)-7]
A549; [1]
  CC50: > 24700 nM
A549; [2]
  GI50: 1040 nM
A549; [3]
  IC (TGI): 3460 nM
HT29; [4]
  CC50: 1310 nM
HT29; [5]
  GI50: 346 nM
HT29; [6]
  IC (TGI): 593 nM
MDA-MB-231; [7]
  CC50: > 24700 nM
MDA-MB-231; [8]
  GI50: 766 nM
MDA-MB-231; [9]
  IC (TGI): 2470 nM

## COC1=CC[C@@H]([C@@H](C)/C=C(C)/C=C\C=C/C(=O)N[C@H](C(=O)N/C=C\C[C@@H](C/C=C(\C)Cl)OC(N)=O)C(C)C)OC1=O [(21S)-5]
A549; [1]
  CC50: > 1690 nM
A549; [2]
  GI50: 6.92 nM
A549; [3]
  IC (TGI): 28.7 nM
HT29; [4]
  CC50: 3.88 nM
HT29; [5]
  GI50: 2.53 nM
HT29; [6]
  IC (TGI): 2.87 nM
MDA-MB-231; [7]
  CC50: 103 nM
MDA-MB-231; [8]
  GI50: 4.56 nM
MDA-MB-231; [9]
  IC (TGI): 18.6 nM

## COC1=CC[C@@H]([C@@H](C)/C=C(C)/C=C\C=C/C(=O)N[C@H](C(=O)N/C=C\C[C@H](O)C/C=C(\C)Cl)C(C)(C)C)OC1=O [(21S)-30a]
A549; [1]
  CC50: > 1630 nM
A549; [2]
  GI50: 3.73 nM
A549; [3]
  IC (TGI): 195 nM
HT29; [4]
  CC50: > 1630 nM
HT29; [5]
  GI50: 2.66 nM
HT29; [6]
  IC (TGI): 3.02 nM
MDA-MB-231; [7]
  CC50: 284 nM
MDA-MB-231; [8]
  GI50: 2.49 nM
MDA-MB-231; [9]
  IC (TGI): 21.3 nM

## COC1=CC[C@@H]([C@@H](C)/C=C(C)/C=C/C=C/C(=O)N[C@H](C(=O)N/C=C\C[C@H](C/C=C(\C)Cl)OC(N)=O)C(C)(C)C)OC1=O [Compound 3]
A549; A549, 48 h
  GI50: 1.02 nM
  IC (TGI): 4.29 nM
A549; A549, 48 h, read-out: LC50
  CC50: > 165 nM
HT29; HT-29, 48 h
  GI50: 0.445 nM
  IC (TGI): 0.759 nM
HT29; HT-29, 48 h, read-out: LC50
  CC50: > 165 nM
MDA-MB-231; MDA-MB-231, 48 h
  GI50: 0.924 nM
  IC (TGI): 2.47 nM
MDA-MB-231; [10]
  CC50: 9.57 nM

## C/C=C\C[C@@H](C/C=C\NC(=O)[C@@H](NC(=O)\C=C/C=C\C(C)=C\[C@H](C)[C@@H]1CC=C(OC)C(=O)O1)C(C)(C)C)OC(N)=O [Compound 4]
A549; A549, 48 h, read-out: LC50
  CC50: > 1640 nM
A549; [2]
  GI50: 0.595 nM
A549; [3]
  IC (TGI): 2.45 nM
HT29; HT-29, 48 h, read-out: LC50
  CC50: 1.12 nM
HT29; [5]
  GI50: < 0.431 nM
HT29; [6]
  IC (TGI): 0.928 nM
MDA-MB-231; [10]
  CC50: 8.23 nM
MDA-MB-231; [8]
  GI50: 0.613 nM
MDA-MB-231; [9]
  IC (TGI): 1.49 nM

## COC1=CC[C@@H]([C@@H](C)/C=C(C)/C=C\C=C/C(=O)N[C@H](C(=O)N/C=C\C[C@H](C/C=C(\C)Cl)OC(N)=O)C(C)C)OC1=O [Compound 5]
A549; [1]
  CC50: > 169 nM
A549; [2]
  GI50: 0.0608 nM
A549; [3]
  IC (TGI): 0.321 nM
HT29; [4]
  CC50: > 169 nM
HT29; [5]
  GI50: 0.0439 nM
HT29; [6]
  IC (TGI): 0.128 nM
MDA-MB-231; [7]
  CC50: 4.9 nM
MDA-MB-231; [8]
  GI50: 0.103 nM
MDA-MB-231; [9]
  IC (TGI): 0.456 nM

## COC1=CCC(C(C)/C=C(C)/C=C/C=C\C(=O)NC(C(=O)N/C=C\CC(C/C=C(\C)Cl)OC(N)=O)C(C)C)OC1=O (stereo not drawn) [Compound 6]
A549; [1]
  CC50: > 1640 nM
A549; [2]
  GI50: 0.76 nM
A549; [3]
  IC (TGI): > 1640 nM
HT29; [4]
  CC50: 4.9 nM
HT29; [5]
  GI50: 0.591 nM
HT29; [6]
  IC (TGI): 1.01 nM
MDA-MB-231; [7]
  CC50: 15.5 nM
MDA-MB-231; [8]
  GI50: 0.49 nM
MDA-MB-231; [9]
  IC (TGI): 3.21 nM

## COC1=CC[C@@H]([C@@H](C)/C=C(C)/C=C\C=C/C(=O)N[C@H](C(N)=O)C(C)(C)C)OC1=O [Compound 7]
A549; [1]
  CC50: > 2470 nM
A549; [2]
  GI50: 618 nM
A549; [3]
  IC (TGI): 1190 nM
HT29; [4]
  CC50: 816 nM
HT29; [5]
  GI50: 420 nM
HT29; [6]
  IC (TGI): 544 nM
MDA-MB-231; [7]
  CC50: 2450 nM
MDA-MB-231; [8]
  GI50: 420 nM
MDA-MB-231; [9]
  IC (TGI): 841 nM

## COC1=CC[C@@H]([C@@H](C)/C=C(C)/C=C\C=C\C(=O)N[C@H](C(=O)N/C=C\C[C@H](C/C=C(\C)Cl)OC(N)=O)C(C)(C)C)OC1=O [Compound 8]
A549; A549, 48 h
  GI50: 3.63 nM
  IC (TGI): 13 nM
A549; A549, 48 h, read-out: LC50
  CC50: > 1650 nM
HT29; HT-29, 48 h
  GI50: 2.14 nM
  IC (TGI): 3.13 nM
HT29; HT-29, 48 h, read-out: LC50
  CC50: 6.27 nM
MDA-MB-231; MDA-MB-231, 48 h
  GI50: 3.46 nM
  IC (TGI): 10.1 nM
MDA-MB-231; [10]
  CC50: 41.2 nM

From patent publication US8324406B2, “Antitumoral dihydropyran-2-one compounds” (priority 2006, dated 2012)
